Reference: ChEMBL document CHEMBL1159320, “Cytotoxic effect (on tumor cells) and in vitro antiviral activity against herpes simplex virus of synthetic spongiane diterpenes” (J Nat Prod, 2002)
Values after ≈ are worked out from the molar mass of the structure shown. Active and inactive are the calls of the source. The calls are words filed in the database; no cut-off is given here.

Experiments:
[1] = Cytotoxicity against CHO cells after 48 hrs by MTT assay; type: cell-based, Cricetulus griseus; conditions: chinese hamster
HEp-2 [2] = experiment: Cytotoxicity against human Hep2 cells after 48 hrs by MTT assay; type: functional; conditions: HEp-2, 48 h
[3] = Cytotoxicity against bovine Bon-Fib cells after 48 hrs; type: cell-based, Bos taurus; conditions: cattle
CHO = experiment: Cytotoxicity against CHO cells after 48 hrs; type: cell-based, Cricetulus griseus; conditions: chinese hamster
[4] = Cytotoxicity against bovine Bon-Fib cells after 48 hrs by MTT assay; type: cell-based, Bos taurus; conditions: cattle
Human alphaherpesvirus 2 = experiment: Antiviral activity against HSV2 infected in human HeP2 ells; type: functional
HeLa [5] = experiment: Cytotoxicity against human HeLa cells after 48 hrs by MTT assay; type: functional
Vero = experiment: Cytotoxicity against african green monkey Vero cells by EPTT method; type: cell-based; conditions: chlorocebus sabaeus
HeLa [6] = experiment: Cytotoxicity against human HeLa cells after 48 hrs; type: functional
Human alphaherpesvirus 1 = experiment: Antiviral activity against HSV1 infected in mouse P388 cells; type: functional, organism-based; conditions: Human alphaherpesvirus 1, P388
P388 = experiment: Antitumor activity against mouse P388 cells; type: functional, cell-based
[7] = Cytotoxicity against pig PS cells; type: cell-based, Sus scrofa; conditions: read-out: ED50 (the source's name)
L1210 = experiment: Cytotoxicity against mouse L1210 cells; type: functional, cell-based
KB = experiment: Cytotoxicity against human KB cells; type: functional, cell-based
HEp-2 [8] = experiment: Cytotoxicity against human Hep2 cells after 48 hrs; type: functional

| Compound | CC50 at 48 h [1] | CC50 (HEp-2 [2]) | CC100 [3] | CC100 (CHO) | CC50 at 48 h [4] | Activity (Human alphaherpesvirus 2) | CC50 (HeLa [5]) | CC100 (Vero) | other results |
| --- | --- | --- | --- | --- | --- | --- | --- | --- | --- |
| CC1(C)CCC[C@]2(C)[C@H]3CC[C@H]4C(=O)OC5O[C@@H](O)[C@]3(CC[C@@H]12)[C@H]54 (stereo partly drawn) [DENDRILLOL- 1] | 5.1 µg/mL (≈ 15.2 µM) | 3.46 µg/mL (≈ 10.3 µM) | 13 µg/mL | 13 µg/mL | 18.9 µg/mL (≈ 56.4 µM) | inactive | 14.8 µg/mL (≈ 44.3 µM) | 8 µg/mL |  |
| CC(=O)OC[C@@H]1[C@H]2CC[C@@H]3[C@@]4(C)CCCC(C)(C)[C@@H]4CC[C@@]13COC2=O | 21.5 µg/mL (≈ 59.4 µM) | 10.1 µg/mL (≈ 27.7 µM) | 36 µg/mL | 36 µg/mL | 15.9 µg/mL (≈ 43.8 µM) | 14 µg/mL | 16.5 µg/mL (≈ 45.5 µM) | 28 µg/mL | CC100 (HeLa [6]): 18 µg/mL |
| C[C@]12CC(=O)[C@@H](O)[C@](C)(CO)[C@@H]1CC[C@@]1(C)c3cocc3CC[C@H]21 [SPONGIADIOL] |  |  |  |  |  |  |  |  | IC50 (Human alphaherpesvirus 1): 0.25 µg/mL (≈ 0.752 µM); IC50 (P388): 0.5 µg/mL (≈ 1.5 µM) |
| CC1(C)CCC[C@]2(C)[C@H]3CC[C@H]4C(=O)OC[C@H]4[C@]3(C=O)CC[C@@H]12 | 13.2 µg/mL (≈ 41.3 µM) | 9.56 µg/mL (≈ 30 µM) | 40 µg/mL | 20 µg/mL | 19 µg/mL (≈ 59.6 µM) | 14 µg/mL | 14.2 µg/mL (≈ 44.5 µM) | 28 µg/mL |  |
| C[C@]12CC(=O)[C@H](O)[C@](C)(CO)[C@@H]1CC[C@@]1(C)c3cocc3CC[C@H]21 [EPISPONGIADIOL] |  |  |  |  |  |  |  |  | IC50 (Human alphaherpesvirus 1): 12.5 µg/mL (≈ 37.6 µM); IC50 (P388): 8 µg/mL (≈ 24.1 µM) |
| COC(=O)[C@@H]1CC[C@@H]2[C@@]3(C)CCCC(C)(C)[C@@H]3CC[C@]23C(O)OC[C@H]13 (stereo partly drawn) | 24.5 µg/mL (≈ 69.9 µM) | 21.8 µg/mL (≈ 62.3 µM) | > 120 µg/mL | 30 µg/mL | > 120 µg/mL | inactive | 37.6 µg/mL (≈ 107 µM) | 30 µg/mL | CC100 (HeLa [6]): 60 µg/mL |
| CC1(C)C(=O)CC[C@]2(C)[C@H]3CCc4cocc4[C@]3(C)CC[C@@H]12 |  |  | 40 µg/mL | 30 µg/mL |  | inactive |  | 28 µg/mL |  |
| Nc1nc2c(ncn2COCCO)c(=O)[nH]1 [ACYCLOVIR] |  |  |  |  |  | 6 µg/mL |  | > 600 µg/mL |  |
| CC[C@]1(O)C[C@H]2CN(CCc3c([nH]c4ccccc34)[C@@](C(=O)OC)(c3cc4c(cc3OC)N(C=O)[C@H]3[C@@](O)(C(=O)OC)[C@H](OC(C)=O)[C@]5(CC)C=CCN6CC[C@]43[C@@H]65)C2)C1 [VINCRISTINE] | 1.15 µg/mL (≈ 1.39 µM) | 0.05 µg/mL (≈ 0.0606 µM) |  |  | 0.61 µg/mL (≈ 0.739 µM) |  | 0.05 µg/mL (≈ 0.0606 µM) |  |  |
| CC1(C)CCC[C@]2(C)[C@H]3CC[C@@]4(O)C(=O)OC[C@H]4[C@]3(C)CC[C@@H]12 |  |  |  |  |  | 25 µg/mL |  | 50 µg/mL |  |
| CO[C@H]1CC[C@]2(C)[C@H]3CCc4cocc4[C@]3(C)CC[C@H]2[C@@H]1C | 13.3 µg/mL (≈ 44 µM) | 10.4 µg/mL (≈ 34.5 µM) | 36 µg/mL | 36 µg/mL | 17.9 µg/mL (≈ 59.2 µM) | 15 µg/mL | 13.6 µg/mL (≈ 44.9 µM) | 28 µg/mL | CC100 (HeLa [6]): 18 µg/mL |
| CC1(C)CCC[C@]2(C)[C@H]3CCc4cocc4[C@]3(C)CC[C@@H]12 |  |  |  |  |  | 60 µg/mL |  | 120 µg/mL |  |
| CCCC(=O)O[C@@H]1C[C@H]2C(C)(C)CCC[C@]2(C)[C@H]2CC[C@H]3C(=O)O[C@H]4O[C@@H](O)[C@]21[C@H]43 |  |  |  |  |  |  |  |  | CC50 [7]: 6.5 µg/mL (≈ 15.5 µM) |
| CC1(C)CCC[C@]2(C)[C@H]3CC[C@H]4C(=O)OC[C@]3(CC[C@@H]12)[C@@H]4CO |  |  |  |  |  | 18.7 µg/mL |  | 37.5 µg/mL |  |
| CC1(C)CCC[C@]2(C)[C@H]3CC=C4C(=O)OC[C@H]4[C@]3(C)CC[C@@H]12 [ISOAGATHOLACTONE] |  |  |  |  |  | inactive |  | 40 µg/mL |  |
| CC(=O)O[C@@H]1OC2OC(=O)[C@@H]3CC[C@@H]4[C@@]5(C)CCCC(C)(C)[C@@H]5CC[C@]14[C@H]23 (stereo partly drawn) |  |  |  |  |  | 120 µg/mL |  | > 120 µg/mL |  |
| CC(=O)O[C@H]1C=C2C(=O)OC[C@@]2(O)[C@]2(C)[C@@H](OC(C)=O)C[C@H]3C(C)(C)CCC[C@]3(C)[C@@H]12 [DORISENONE A] |  |  |  |  |  |  |  |  | IC50 (L1210): 0.21 µg/mL (≈ 0.483 µM); IC50 (KB): 0.22 µg/mL (≈ 0.506 µM) |
| CC1(C)CCC[C@]2(C)[C@H]3CC[C@]4(O)C(=O)OC[C@H]4[C@]3(C)CC[C@@H]12 |  |  |  |  |  | 28 µg/mL |  | 56 µg/mL |  |
| CC1(C)CCC[C@]2(C)[C@H]3CC[C@H]4C(=O)OC5OC[C@H]4[C@@]53CC[C@@H]12 |  |  |  |  |  | 29 µg/mL |  | 58 µg/mL |  |
| C[C@]12C[C@@H](O)C(=O)[C@](C)(CO)[C@@H]1CC[C@@]1(C)c3cocc3CC[C@H]21 [ISOSPONGIADIOL] |  |  |  |  |  |  |  |  | IC50 (Human alphaherpesvirus 1): 2 µg/mL (≈ 6.02 µM); IC50 (P388): 5 µg/mL (≈ 15 µM) |
| CC(=O)O[C@H]1OC(=O)[C@@H]2CC[C@@H]3[C@@]4(C)CCCC(C)(C)[C@@H]4CC[C@@]3(C=O)[C@H]12 | 4.96 µg/mL (≈ 13.2 µM) | 4.43 µg/mL (≈ 11.8 µM) | 24 µg/mL | 24 µg/mL | 18.3 µg/mL (≈ 48.6 µM) | 4.5 µg/mL | 6.27 µg/mL (≈ 16.7 µM) | 9 µg/mL | CC100 (HEp-2 [8]): 12 µg/mL; CC100 (HeLa [6]): 12 µg/mL |
| CO[C@@H]1OC2OC(=O)[C@@H]3CC[C@@H]4[C@@]5(C)CCCC(C)(C)[C@@H]5CC[C@]14[C@H]23 (stereo partly drawn) |  |  |  |  |  | 60 µg/mL |  | 120 µg/mL |  |
